Three molecules from ChEMBL document CHEMBL3875228, “Rational Design of a Boron-Modified Triphenylethylene (GLL398) as an Oral Selective Estrogen Receptor Downregulator” (ACS Med Chem Lett, 2017) can be followed below.

Data set [1] is described as follows: Cmax in Sprague-Dawley rat at 10 mg/kg, po administered via gavage measured at 1 to 24 hrs post administration by HPLC-MS/MS analysis. To be noted: in vivo. Also on record: dose 10 mg/kg, route oral. It is filed as ADME, organism-based.
A short description of data set [2]: AUC in Sprague-Dawley rat assessed as GW7604 at 10 mg/kg, po administered via gavage measured at 1 to 24 hrs post administration by HPLC-MS/MS analysis. It is filed as ADME, organism-based. As to conditions: in vivo.
Data set [3] is described as follows: Tmax in Sprague-Dawley rat at 10 mg/kg, po administered via gavage measured at 1 to 24 hrs post administration by HPLC-MS/MS analysis. It is filed as ADME, organism-based. As to conditions: in vivo.
Data set [4] can be described thus: Half life in Sprague-Dawley rat at 10 mg/kg, po administered via gavage measured at 1 to 24 hrs post administration by HPLC-MS/MS analysis. It is filed as ADME, organism-based. To be noted: in vivo.
The nature of data set [5]: cells. To be noted: Homo sapiens, MCF7, 120 h.
Description: Cytotoxicity against human MCF7 cells assessed as reduction in cell viability after 5 days by Coulter counting method
Data set [6] is described as follows: AUC in Sprague-Dawley rat at 10 mg/kg, po administered via gavage measured at 1 to 24 hrs post administration by HPLC-MS/MS analysis. It is filed as ADME, organism-based. To be noted: in vivo.
Data set [7] can be described thus: cells. To be noted: Homo sapiens, MCF7, 120 h. The source holds these as a separate data set.
Description: Cytotoxicity against tamoxifen-resistant human MCF7 cells assessed as reduction in cell viability after 5 days by Coulter counting method
Data set [8] is described as follows: Cmax in Sprague-Dawley rat assessed as GW7604 at 10 mg/kg, po administered via gavage measured at 1 to 24 hrs post administration by HPLC-MS/MS analysis. It is filed as ADME, organism-based. Further details: dose 10 mg/kg, route oral. As to conditions: in vivo.
Data set [9] in a line: Half life in Sprague-Dawley rat assessed as GW7604 at 10 mg/kg, po administered via gavage measured at 1 to 24 hrs post administration by HPLC-MS/MS analysis. To be noted: in vivo. It is filed as ADME, organism-based.
Data set [10] deals with T1, Estrogen receptor (Homo sapiens, UniProt P03372).
T1 sequence (P03372 whole entry): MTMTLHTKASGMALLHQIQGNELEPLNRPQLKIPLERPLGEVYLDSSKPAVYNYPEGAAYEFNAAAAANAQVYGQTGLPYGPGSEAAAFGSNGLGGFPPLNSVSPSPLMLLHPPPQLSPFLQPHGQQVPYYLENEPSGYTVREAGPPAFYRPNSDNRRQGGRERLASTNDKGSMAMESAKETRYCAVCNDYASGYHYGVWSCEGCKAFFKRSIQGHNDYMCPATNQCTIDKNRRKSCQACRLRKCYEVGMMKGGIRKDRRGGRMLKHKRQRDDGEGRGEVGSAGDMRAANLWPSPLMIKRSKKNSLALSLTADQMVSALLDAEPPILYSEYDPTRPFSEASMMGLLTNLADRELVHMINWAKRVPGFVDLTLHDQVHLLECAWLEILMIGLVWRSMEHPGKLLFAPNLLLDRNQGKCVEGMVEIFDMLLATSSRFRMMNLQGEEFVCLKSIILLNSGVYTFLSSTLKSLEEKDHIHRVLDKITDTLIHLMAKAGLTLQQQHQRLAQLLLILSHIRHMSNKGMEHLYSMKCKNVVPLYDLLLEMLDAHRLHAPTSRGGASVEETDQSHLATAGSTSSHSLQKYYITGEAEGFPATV
As to the kind of experiment: Downregulation of ERalpha in human MCF7 cells after 4 hrs by Western blot analysis. It is filed as cell-based. In general terms: Immunoblotting shows a protein as a band on a membrane.

Data set [11] deals with T1, Estrogen receptor. As to the kind of experiment: biochemical.
Description: Displacement of fluormone-labeled ES2 from recombinant full length human ERalpha ligand binding domain expressed in insect cells after 2 hrs by TR-FRET assay

What is called Cmax is the peak of the concentration-time curve. As usually defined, the AUC is the area under the concentration-time curve, a measure of exposure. As a reminder, the Tmax is the time from dosing to the highest level. For orientation: half-life means the time in which the quantity being followed falls by half. Usually IC50 stands for the concentration needed to halve the response being measured. Low values mean greater potency in that assay, high ones weaker potency in that assay. Take `CC/C(=C(\c1ccccc1)c1ccc(/C=C/C(=O)O)cc1)c1ccc(O)cc1`: the Cmax is 270 ng/mL in data set [1] and 560 ng/mL in data set [8]. For the same molecule, the AUC in data set [2] stood at 8670 ng·h/mL; in data set [6], 3350 ng·h/mL. The Tmax in data set [3] was determined as 3 h. Besides, the half-life in data set [4] was 7 h. In addition, the IC50 was 1900 nM in the data set “cells [5]” and 1000 nM in “cells [7]”. In data set [9], the t1/2 is 4.5 h.
As to `CCC(=C(c1ccc(/C=C/C(=O)O)cc1)c1ccc(B(O)O)cc1)c1ccccc1`, the Cmax in [1] was found to be 3510 ng/mL. For the same molecule, the IC50 is 210 nM at Estrogen receptor [10], 1800 nM in the data set “cells [5]”, 1200 nM in “cells [7]” and 1.14 nM on Estrogen receptor [11]. For the same molecule, the Tmax in data set [3] was found to be 1 h. In [4], the half-life was 3.9 h. Also, the AUC in data set [6] came to 36900 ng·h/mL.
Take `CC/C(=C(\c1ccc(O)cc1)c1ccc(OCCN(C)C)cc1)c1ccccc1` [AFIMOXIFENE]: the half-maximal inhibitory concentration (IC50) in “cells [5]” turned out to be 3.4 nM; in “cells [7]”, 20000 nM.
